Reference: PubChem BioAssay (NCI)
“And” between values parts separate entries of the source, which are not always exact repeats. Equal entries are not always repeated.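 Following 48 hours of exposure in 96-well plates, responses at five concentrations were used to interpolate endpoints linearly. At the GI50, growth is halved. TGI is the concentration that stops growth completely.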

Columns and labels:
Test in all cases: NCI anticancer screen, dose series, 48 h
SK-MEL-28 melanoma = tested on: SK-MEL-28 melanoma
BT-549 breast = tested on: BT-549 breast
EKVX NSCLC = tested on: EKVX NSCLC
MALME-3M melanoma = tested on: MALME-3M melanoma
HT29 colon = tested on: HT29 colon
SNB-75 CNS = tested on: SNB-75 CNS
SF-295 CNS = tested on: SF-295 CNS
UACC-62 melanoma = tested on: UACC-62 melanoma
T-47D breast = tested on: T-47D breast
M14 melanoma = tested on: M14 melanoma
RPMI-8226 leukemia = tested on: RPMI-8226 leukemia
NCI/ADR-RES ovarian = tested on: NCI/ADR-RES ovarian
A498 renal = tested on: A498 renal
MCF7 breast = tested on: MCF7 breast
OVCAR-3 ovarian = tested on: OVCAR-3 ovarian
IGROV1 ovarian = tested on: IGROV1 ovarian
HOP-92 NSCLC = tested on: HOP-92 NSCLC
OVCAR-8 ovarian = tested on: OVCAR-8 ovarian
KM12 colon = tested on: KM12 colon
786-0 renal = tested on: 786-0 renal
CAKI-1 renal = tested on: CAKI-1 renal
SW-620 colon = tested on: SW-620 colon
A549 NSCLC = tested on: A549 NSCLC
LOX IMVI melanoma = tested on: LOX IMVI melanoma
SK-MEL-5 melanoma = tested on: SK-MEL-5 melanoma
SNB-19 CNS = tested on: SNB-19 CNS
ACHN renal = tested on: ACHN renal

For `COCCNCCc1cccc(Nc2ncc3c(n2)-c2ccccc2C(c2ccccc2F)C3)c1` (centres undefined), the GI50 (SK-MEL-28 melanoma) was 1600 nM and 1760 nM, the TGI (SK-MEL-28 melanoma) was 2970 nM and 3180 nM and the GI50 (BT-549 breast) was 1550 nM and 7790 nM. For the same compound, the TGI (BT-549 breast) was 2950 nM and 25600 nM, the GI50 (EKVX NSCLC) was 1630 nM and 1920 nM and the TGI (EKVX NSCLC) was 3130 nM and 3510 nM. The GI50 (MALME-3M melanoma) was 1770 nM and 1870 nM, the TGI (MALME-3M melanoma) was 3410 nM and 3540 nM and the GI50 (HT29 colon) was 1120 nM and 1310 nM. For the same compound, the TGI (HT29 colon) was 2360 nM and 2680 nM, the GI50 (SNB-75 CNS) was 1170 nM and 727 nM and the TGI (SNB-75 CNS) was 2480 nM and 2090 nM. For the same compound, the GI50 (SF-295 CNS) was 1720 nM and 1610 nM, the TGI (SF-295 CNS) was 3110 nM and 2990 nM and the GI50 (UACC-62 melanoma) was 1720 nM and 1760 nM. The TGI (UACC-62 melanoma) was 3120 nM and 3160 nM, the GI50 (T-47D breast) was 1760 nM and 1820 nM and the TGI (T-47D breast) was 3600 nM and 3920 nM. For the same compound, the GI50 (M14 melanoma) was 1560 nM and 1940 nM, the TGI (M14 melanoma) was 3060 nM and 3780 nM and the GI50 (RPMI-8226 leukemia) was 1520 nM and 1740 nM. For the same compound, the TGI (RPMI-8226 leukemia) was 3700 nM and 4230 nM, the GI50 (NCI/ADR-RES ovarian) was 1790 nM and 1760 nM and the TGI (NCI/ADR-RES ovarian) was 3430 nM and 3450 nM. For the same compound, the GI50 (A498 renal) was 345 nM and 1610 nM, the TGI (A498 renal) was 1750 nM and 3140 nM and the GI50 (MCF7 breast) was 1580 nM and 1780 nM. The TGI (MCF7 breast) was 3400 nM and 3690 nM, the GI50 (OVCAR-3 ovarian) was 1760 nM and 1600 nM and the TGI (OVCAR-3 ovarian) was 3480 nM and 3100 nM. The GI50 (IGROV1 ovarian) was 1000 nM and 1210 nM, the TGI (IGROV1 ovarian) was 2380 nM and 2750 nM and the GI50 (HOP-92 NSCLC) was 1020 nM and 1240 nM. For the same compound, the TGI (HOP-92 NSCLC) was 2270 nM and 2650 nM, the GI50 (OVCAR-8 ovarian) was 1790 nM and 1870 nM and the TGI (OVCAR-8 ovarian) was 3380 nM and 3900 nM. For the same compound, the GI50 (KM12 colon) was 1770 nM and 1790 nM, the TGI (KM12 colon) was 3430 nM and 3370 nM and the GI50 (786-0 renal) was 1430 nM and 1760 nM. For the same compound, the TGI (786-0 renal) was 2910 nM and 3300 nM, the GI50 (CAKI-1 renal) was 1270 nM and 1260 nM and the TGI (CAKI-1 renal) was 2540 nM. For the same compound, the GI50 (SW-620 colon) was 2400 nM, the TGI (SW-620 colon) was 4630 nM and the GI50 (A549 NSCLC) was 1780 nM and 1880 nM. The TGI (A549 NSCLC) was 3330 nM and 3510 nM, the GI50 (LOX IMVI melanoma) was 1250 nM and 1230 nM and the TGI (LOX IMVI melanoma) was 2560 nM and 2500 nM. For the same compound, the GI50 (SK-MEL-5 melanoma) was 1650 nM, the TGI (SK-MEL-5 melanoma) was 3040 nM and 3030 nM and the GI50 (SNB-19 CNS) was 1750 nM and 1810 nM. For the same compound, the TGI (SNB-19 CNS) was 3180 nM and 3280 nM, the GI50 (ACHN renal) was 1030 nM and 1050 nM and the TGI (ACHN renal) was 2200 nM and 2230 nM.
